Values of other authors, collected in article PMC6888386, “Identification of Novel 1,3,5-Triphenylbenzene Derivative Compounds as Inhibitors of Hen Lysozyme Amyloid Fibril Formation” (International Journal of Molecular Sciences, 2019).

Tested on: HEWL
Set-up: method as in PMID 27597412
Conditions: HEWL amyloid fibril formation; read-out: IC50 value of a representative bis(indolyl)phenylmethane; cited from earlier work

For bis(indolyl)phenylmethane, the IC50 is given as 12.3 ± 1 µM.
